Laboratory results as given in ChEMBL document CHEMBL3301451, “MMV Malaria Box gametocyte functional viability assay screening”.

Columns and labels:
[1] = tested on: Plasmodium berghei; test: MMV: P. berghei-infected blood was withdrawn from mice by cardiac pucture before being immediately added to ookinete culture medium containing test compounds. 26 hr later, GFP-positive ookinetes were identified and counted by automated microscopy. All compounds were tested in 4 independent experiments and data presented here is the mean.; format: functional; set-up: concentration or dose not given beside the values
[2] = tested on: Plasmodium falciparum; test: (§1) MMV: P. falciparum NF54 functionally mature Stage V gametocytes were incubated for 24 hr in the presence of the test compounds. Gamete formation was then triggered by addition of 2uM xantheurenic acid and temperature decrease to ~20C. Female gamete formation was recorded 24 hr later by automated microscopy detection of surface labelling of female gametes with a Cy3-conjugated antibody reactive to Pfs25. All compounds were tested in 4 independent experiments and data presented here is the mean.; format: functional; set-up: concentration or dose not given beside the values; conditions: NF54, 24 h
[3] = tested on: Plasmodium falciparum; test: (§2) MMV: P. falciparum NF54 functionally mature Stage V gametocytes were incubated for 24 hr in the presence of the test compounds. Gamete formation was then triggered by addition of 2uM xantheurenic acid and temperature decrease to ~20C. Male gamete exflagellation was recorded and analysed by automated microscopy after 20 min. All compounds were tested in 4 independent experiments and data presented here is the mean.; format: functional; set-up: concentration or dose not given beside the values
[4] = tested on: Plasmodium falciparum; test: as §1, with “mean. IC50s determined for selected compounds.” for “mean.”; format: functional, organism-based; conditions: NF54, 24 h
[5] = tested on: Plasmodium falciparum; test: as §2, with “mean. IC50s determined for selected compounds.” for “mean.”; format: functional, organism-based

SMILES	inhibition [1] [%]	inhibition [2] [%]	inhibition [3] [%]	IC50 [4] [nM]	IC50 [5] [nM]
O=C(Nc1ccc(Cl)c(Cl)c1)Nc1ccc(Cl)c(Cl)c1	-17.89	-21.6	-55.6		
COc1ccc2c(c1)C1(Nc3ccccc3-c3nc4ccccc4n31)C(=O)N2 (centres undefined)	54.64	24	48.2	6450	2900
Cc1cc(C)cc(Nc2cc(C)nc3nc(C(F)(F)F)nn23)c1	-26.51	-17.3	13.1		
Cc1sc(NC(=O)c2ccccc2)c(C(c2cccs2)N2CCN(c3ccccc3)CC2)c1C (centres undefined)	-17.69	-14.4	8.21		
O=C(NCC(c1ccsc1)N1CCCCCC1)c1ccc(C(F)(F)F)cc1 (centres undefined)	-31.95	-37.4	-14.6		
COc1ccc(-c2cc3c(SCC(=O)Nc4cc(C(F)(F)F)ccc4Cl)nccn3n2)cc1	-25.97	-16.8	23.5		
CCN(CC)CCNc1ncnc2c1[nH]c1ccc(Cl)cc12	-19.34	-27.6	-43.5		
CCN(CC)CCNc1ccnc2cc(Cl)ccc12	-23.67	-29.9	-16.3		
COc1ccc(C(=O)Nc2ccc3nc(N4CCCCC4)cc(C)c3c2)cc1OC	-18.9	-48	9.9		
CCc1c(C)c(=N)c2ccccc2n1C.I	-36.84	-14.1	-21.8		
Cc1ccc(C(=O)c2oc3ccc4c(C)cc(=O)oc4c3c2C)cc1	-19.35	-29.5	-7.03		
COc1ccc(CN2CCCC(C(=O)c3ccc(C(F)(F)F)cc3)C2)c(O)c1 (centres undefined)	-17.45	6.89	36.1		
CCOC(=O)c1cn(CC)c2cc(N(C)CCc3ccc(OC)c(OC)c3)c(F)cc2c1=O	20.52	-15	71.2	> 50000	45
O=C(CCl)NCCOc1ccc(Cl)cc1Cl	-18.34	-30.6	13.7		
CC(=O)c1ccc(NC(=O)CSc2nc(-c3ccccc3Cl)ns2)cc1	-19.34	2.09	33.1		
CC(C)(C)c1ccc(O)c(CNC2CCCCC2)c1	-33.89	3.67	-29.4		
O=[N+]([O-])c1ccc(C=NNc2nc3ccccc3[nH]2)cc1	-19.94	-17	18.3		
CCOc1cc2c(cc1OCC)C(c1cc(OC)c(O)cc1Cl)NCC2 (centres undefined)	-21.67	-6.96	19.6		
COc1ccc(C2=C(c3ccc(OC)cc3)C3(c4ccccc4)C(=O)C2(c2ccccc2)C2C(=O)N(c4ccc(C)cc4)C(=O)C23)cc1 (centres undefined)	-21.97	7.88	-9		
COc1ccc(CNC(=O)c2cc3c(=O)n4ccccc4nc3n(CCc3ccccc3)c2=N)cc1	-21.18	0.565	-25		

SMILES	inhibition [1] [%]	inhibition [2] [%]	inhibition [3] [%]	IC50 [4] [nM]	IC50 [5] [nM]
CCOC(=O)c1c(NC(=O)c2ccccc2)sc2c(O)c(CN(CC)CC)ccc12	-23.17	-19.6	51		
CCOC(=O)C1=C(c2ccccc2)N=c2sc(=Cc3cc(C)n(-c4ccc(F)cc4)c3C)c(=O)n2C1c1cccc(OC)c1OC (centres undefined)	-41.23	-0.952	17.4		
CCC1(C)CC(CCNCc2ccccc2O)(c2ccc(C)cc2)CCO1 (centres undefined)	-38.74	7.59	-6.89		
CCOc1cc(Br)c(C(C)NC(=O)c2cccc(OC)c2)cc1OCC (centres undefined)	-20.12	-28.3	10.3		
CCCN(CCC)CC(O)COc1ccccc1C(=O)Nc1ccccc1 (centres undefined)	-27.28	-10.5	0.885		
Fc1ccc2[nH]c3c(NCCCN4CCOCC4)ncnc3c2c1	-27.65	-13.7	14.8		
CC(=O)c1sc(NC(=O)Nc2ccc(C)cc2C)nc1C	-22.74	-20.1	-39.7		
Cl.Cn1c(=O)n(C)c2cc(CNCCNc3ccnc4cc(Cl)ccc34)ccc21	-19.76	-26.8	-3.18		
COc1ccc(Nc2cc(C)nc(NCc3ccccc3)n2)cc1	-20.03	-30.5	-9.51		
Oc1ccc2ccccc2c1CNc1nc2ccccc2[nH]1	-28.7	-19.1	31.6		
CCOC(=O)c1c(C)n(-c2ccc(Cl)cc2)c2ccc(OC(=O)C=Cc3ccccc3)cc12	-22.23	-9.97	18.8		
O=C(Nc1ccc(-c2nc3ccccc3[nH]2)cc1)c1ccc(Cl)c(Cl)c1	-25.94	-34.9	4.23		
C=CC12CCN(CC1)C(C(O)c1ccnc3ccc(OC)cc13)C2.Cl (centres undefined)	-25.15	-31.3	-29.1		
Cc1cccc(Nc2nc(N)c3ccccc3n2)c1.Cl	-25.03	-22.2	-38.3		
COc1ccccc1CNC(=O)CCn1c(=O)[nH]c2ccccc2c1=O	-17.49	-26.4	13.3		
CCOC(=O)c1cnc2ccc(OC)cc2c1Nc1ccc(N2CCN(C)CC2)cc1	-18.25	-40	-13.9		
COc1ccccc1C(=O)ON=C(N)Cc1cccc2ccccc12	-22.37	14.9	30.9		
CN1C=C(c2ccc3ccccc3n2)C(c2c[nH]c3ccccc23)c2ccccc21 (centres undefined)	-19.58	-36.4	-6.39		
CCCc1cc(O)c2c3c(c(=O)oc2c1)CN(C)CC3	-29.34	-29.9	2.76		
Cl.Oc1ccccc1CNCC12CC3CC(CC(C3)C1)C2	-22.21	-6.61	-27.5		

SMILES	inhibition [1] [%]	inhibition [2] [%]	inhibition [3] [%]	IC50 [4] [nM]	IC50 [5] [nM]
COc1ccc(Br)cc1C1Nc2ccc3ccccc3c2C2=C1C(=O)CC(c1ccccc1)C2 (centres undefined)	-18.54	-13.2	9.97		
O=C(Nc1ccc(-c2nc3cc4ccccc4cc3[nH]2)cc1)c1cccc(Br)c1	-21.87	-0.0992	30.7		
Cc1cc(C=C2SC(=Nc3ccccc3)N(C3CCCC3)C2=O)c(C)n1-c1ccc(Cl)cc1	-28.39	-30.5	31.4		
OC(CNC1CCCCC1)Cn1c2ccc(I)cc2c2cc(I)ccc21 (centres undefined)	-21.59	-48	-12.3		
CC1CCN(Cc2ccc(NC(=O)c3cc4ccc5cccnc5c4[nH]3)cc2)CC1	-17.24	-3.24	10.2		
CCc1ccc(Nc2cc(C)c3ccc(O)cc3n2)cc1.Cl	-20.95	-14	15.2		
COc1cccc(C(=O)NC(c2ccc(C)cc2)c2cc(Cl)c3cccnc3c2O)c1 (centres undefined)	-20.64	0.843	19.5		
COc1ccc2c(=O)cc(C(Cl)(Cl)Cl)oc2c1	-22.17	-23.2	31.7		
Br.CCn1c2c(c(=N)c3c1CCC3)CCCC2	-17.86	-26.2	-42.4		
Cc1cc(Nc2ccc(Cl)cc2)n2nc(C(F)(F)F)nc2n1	-18.89	-10.6	15.3		
COc1ccc(CN2CCN(Cc3ccccc3)CC2)c(O)c1	-17.51	-16.4	-11.1		
COc1ccc(C(C)=O)cc1N1C(=O)C2C(C1=O)C1(c3ccccc3)C(=O)C2(c2ccccc2)C(c2ccc(C)cc2)=C1c1ccc(C)cc1 (centres undefined)	-19.71	-9.11	21.8		
Oc1ccc(Br)cc1CN1CCN(Cc2ccc(Cl)cc2)CC1	-27.93	-35.8	-54.3		
COc1ccc(CCNC(=O)c2cc(S(=O)(=O)N3CC(C)CC(C)C3)ccc2Sc2ccc(F)cc2)cc1OC (centres undefined)	-21.03	4.07	-26.1		
CCCc1c(CC)c(=N)c2ccccc2n1C	-31.4	-32.4	-39.2		
Cc1ccc(Nc2nc(NCCO)c3ccccc3n2)cc1C	-19.56	-25.6	12.7		
COc1ccc2sc(N(Cc3cccnc3)C(=O)c3ccc(C#N)cc3)nc2c1	-20.76	-25.4	18.5		
Cc1c(C)n(CC(O)CNC2CCCCC2C)c2ccccc12 (centres undefined)	-21.36	-4.05	8.26		
Nc1ccn([C@@H]2O[C@H](CO)[C@@H](O)[C@H]2O)c(=O)n1 [CYTIDINE]	-17.3	-25.7	-18.8		
O=C(Nc1cccc(C2=NCCN2)c1)Nc1cccc(C2=NCCN2)c1 [IMIDOCARB]	-13.35	-30.2	-36.7		
